pIC50: −log10 of the molar value. Read-outs that look alike come from different tables or passages of the source.
Assays:
5-HT2A receptor = target: T1, 5-HT2A receptor (Homo sapiens, UniProt P28223); experiment: Functional detection experiment of 5-HT2A receptor (cultured cells), calcium influx assay; format: cell-based
T1 construct: expressed in transfected cells
Excerpt: The antagonistic effect of the compound of the present disclosure on the 5-HT2A receptor was detected by a calcium influx assay at the cellular level.
• (1) Test compounds: compounds of the embodiments of the present disclosure, self-made. • (2) Control compound: serotonin hydrochloride 5-hydroxytryptamine (Sigma, H9523), Ketanserin (Targetmol, T1066). • (3) Stable cell line:
• (1) Preparation of test compounds: the compounds of the embodiments of the present disclosure were respectively dissolved in DMSO to prepare 10 mM mother liquor, and the mother liquor was stored in the nitrogen cabinet for later use. • (2) Preparation of control compound: the control compound was dissolved in DMSO to prepare 10 mM mother liquor, and the mother liquor was repackaged and stored in the refrigerator at -80° C. for later use. • (3) Preparation of 250 mM probenecid solution: 1 mL experimental buffer was added into a tube containing 77 mg powder, and the powder was dissolved by vortex oscillation. • (4) Preparation of 2× fluorescent probe solution: a bottle of fluorescent probe dry powder was taken out to balance to room temperature, and 10 mL of experimental buffer solution and 200 μL of 250 mM probenecid solution were added thereto, and the mixture was scrolled and let stand for 5 minutes to ensure complete dissolution. • (5) Experimental buffer HBSS: HBSS and HEPES were mixed evenly in a ratio of 50:1, stored in a refrigerator at 4° C., and heated at 37° C. when used.
• (1) Cells were taken out from the liquid nitrogen tank and melted in a water bath at 37° C. The surface of the cryopreservation tube was wiped with 75% alcohol and put in the biosafety cabinet. • (2) The cell suspension was transferred to a 15 mL centrifuge tube with 4 mL preheated plating medium, and the tube was centrifuged at 1000 rpm for 5 minutes. • (3) The supernatant was discarded, and 10 mL of plating medium was added and blown gently, and the mixture was transferred to a culture dish for growth. After the cells had adhered to the wall for 24 hours, they were replaced with growth medium for continuous culture.
• (1) The logarithmic growth cells was taken and the cells grew to about 85%-90%. The cells were performed the following operations: cell cleaning, digestion, termination, then transferred to a 15 mL centrifuge tube, and the tube was centrifuged at room temperature at 1000 rpm for 5 minutes. • (2) The supernatant was discarded, and a certain plating medium was added and blown gently. 20 μL of cell suspension was taken out and counted. • (3) Cells were diluted to 1×10^6 cells/mL and 20 μL of cell suspension was added to each well of the cell plate (Greiner-781946), so that the density of each well is 2×10^4 cells/well. • (4) The cell plate was incubated in an incubator with 5% CO2 at 37° C. for 16-24 hours. […]

PK test on ICR mice = format: in vivo; conditions: mouse; male ICR mice, oral gavage, 5 mg/kg single dose, plasma
Description: Male ICR mice were administered by oral gavage administration, and blood concentration of the compound of the present disclosure in mice was measured, and PK parameters were calculated, and the pharmacokinetics of the compound of the present disclosure was evaluated.
Preparation of drug: The test compound was taken, and physiological saline was added, and ultrasonication was performed.
Administration route and dosage: administered by oral gavage, administration dosage: 5 mg/kg, administration volume: 10 mL/kg.
Administration frequency and duration: single dose.
ICR mice were stratified by body weight and then randomly grouped into 3 mice per group, and fasted overnight before the experiment. After oral gavage administration, at 0, 0.033, 0.083, 0.5, 1, 2, 4, 6 and 8 hours, […] of blood was collected from the mandibular vein or saphenous vein of mice and put into sample tubes containing the anticoagulant sodium heparin, and the sample tube was placed in wet ice, centrifuged at 4 000 r·min^−1 for 10 minutes, and the plasma was separated and cryopreserved in a refrigerator at −80° C. for testing.
The blood concentration-time data of the compound of the present disclosure measured by gavage administration were substituted into Winnonlin 8.2 program to calculate the main pharmacokinetic parameters. Tmax and Cmax were measured values, AUC0-t and AUC0-∞ values were calculated by trapezoidal method, and t1/2 was calculated by the concentration point at the end of elimination phase via semi-logarithmic drawing method.

[1] = target: T2, 5-HT2A (CHO-K1/5HT2A cells) (Homo sapiens, UniProt P28223); experiment: Functional activity test on receptor (cryopreservation cells), calcium FLIPR, 5-HT2A; format: cell-based
T2 construct: expressed in transfected cells; host or cells: CHO-K1 (CHO-K1/5HT2A, cryopreserved cells)
T2 sequence (P28223 whole entry): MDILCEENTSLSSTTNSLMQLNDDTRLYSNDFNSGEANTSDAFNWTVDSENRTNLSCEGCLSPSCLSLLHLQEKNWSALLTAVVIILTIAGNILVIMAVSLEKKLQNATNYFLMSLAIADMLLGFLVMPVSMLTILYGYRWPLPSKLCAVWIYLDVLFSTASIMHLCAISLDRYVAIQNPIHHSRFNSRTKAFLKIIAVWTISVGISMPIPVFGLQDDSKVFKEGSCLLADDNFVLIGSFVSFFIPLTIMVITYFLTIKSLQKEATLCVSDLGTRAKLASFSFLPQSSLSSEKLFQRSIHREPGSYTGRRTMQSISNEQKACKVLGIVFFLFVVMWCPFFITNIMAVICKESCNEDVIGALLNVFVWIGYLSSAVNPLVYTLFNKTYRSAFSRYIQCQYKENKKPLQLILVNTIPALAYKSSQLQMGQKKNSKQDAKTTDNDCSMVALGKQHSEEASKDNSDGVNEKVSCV
Description: • (1) Cells was taken out from a liquid nitrogen tank, and the tube cap was loosened and inverted to make the liquid nitrogen flow out of the tube, then the cryopreservation tube was tightened. • (2) The cryopreservation tube was shaken rapidly at 37° C. […] 20 μL cell suspension was taken out and counted by cell counter. • (6) Dilution according to the specified conditions: 1×10^6 cells /mL, 20 μL cell suspension was added into each well of the cell plate, and finally the concentration of each well is 20,000 cells/well sequentially. • (7) The cell plate was cultured in an incubator with 5% CO2 and at 37° C. for 16-24 hours. […]
• a) The cell plate and agonist compound plate were put into the instrument, and the program of reading the plate was run. • b) 10 μL was transferred from the agonist compound plate to the cell plate, and fluorescence signal was read. • c) The EC80 of agonist was calculated using Screenworks software and 6×EC80 concentration was prepared for later use. […]

[2] = target: T3, D2 (CHO-K1/D2L/Gα15 cells) (Homo sapiens, UniProt P14416); experiment: Functional activity test on receptor (cryopreservation cells), calcium FLIPR, D2; format: cell-based; conditions: for pIC50: cryopreserved CHO-K1/D2L/Gα15 cells, calcium fluorescence (FLIPR), antagonist mode vs dopamine EC80; for D2/5-HT2A ratio: ratio of D2 IC50 to 5-HT2A IC50, Test Example 1
T3 construct: expressed in transfected cells; host or cells: CHO-K1 (CHO-K1/D2L/Gα15, cryopreserved cells)
T3 sequence (P14416 whole entry): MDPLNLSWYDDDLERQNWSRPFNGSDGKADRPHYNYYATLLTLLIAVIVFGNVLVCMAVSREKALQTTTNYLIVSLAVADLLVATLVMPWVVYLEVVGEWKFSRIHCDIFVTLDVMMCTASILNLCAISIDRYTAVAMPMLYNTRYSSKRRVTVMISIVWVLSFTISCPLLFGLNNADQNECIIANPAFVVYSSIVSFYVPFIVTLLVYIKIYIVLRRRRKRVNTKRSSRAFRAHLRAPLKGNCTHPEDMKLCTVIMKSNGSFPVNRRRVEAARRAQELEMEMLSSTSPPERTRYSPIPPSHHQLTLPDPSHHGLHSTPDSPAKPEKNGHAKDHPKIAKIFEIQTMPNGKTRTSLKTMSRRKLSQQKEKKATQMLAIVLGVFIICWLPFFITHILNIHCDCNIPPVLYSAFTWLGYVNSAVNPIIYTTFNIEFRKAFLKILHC
Description: Test Example 1: Functional Activity Test of Each Compound on Receptor (Cryopreservation Cells) [table] • (1) Cells was taken out from a liquid nitrogen tank, and the tube cap was loosened and inverted to make the liquid nitrogen flow out of the tube, then the cryopreservation tube was tightened. • (2) The cryopreservation tube was shaken rapidly at 37° C. […] • (1) Preparation of 250 mM probenecid solution: 1 mL experimental buffer was added into a tube containing 77 mg powder, and the powder was dissolved by vortex oscillation. • (2) Preparation of 2× fluorescent probe solution: A bottle of fluorescent probe dry powder was taken out to balance to room temperature, and 10 mL of experimental buffer solution and 200 μL of 250 mM probenecid solution were added thereto, and the bottle was scrolled and let stand for 5 minutes to ensure complete dissolution, and then the bottle was scrolled again. • a) Preparation of agonist compound plate (test of EC80): […] The compound to be tested was diluted 3-fold at 10 concentration points using experimental buffer in the compound plate (Greiner-781280), with an initial concentration of 3 μM and 30 μL per well; the antagonistic positive compounds (Spiperone and Ketanserin) were diluted 3-fold at 10 concentration points using experimental buffer, with an initial concentration of 1 μM and 30 μL per well. DMSO concentration was not higher than 3%. • (2) Cell preparation: Cells was taken out from the incubator, and 20 μL of prepared 2× fluorescent probe solution was added thereto, incubated at 37° C. for 50 minutes, then equilibrated at room temperature for 10 minutes. • a) The cell plate and agonist compound plate were put into the instrument, and the program of reading the plate was run. • b) 10 μL was transferred from the agonist compound plate to the cell plate, and fluorescence signal was read. • c) The EC80 of agonist was calculated using Screenworks software and 6×EC80 concentration was prepared for later use.

[3] = cultured CHO-K1/5-HT2A cells, calcium influx (FLIPR), antagonist mode vs agonist EC80, read-out: 5-HT2A IC50

T1 sequence (P28223 whole entry): as the sequence (P28223 whole entry) above

| pIC50 (5-HT2A receptor; [3]) | AUC(0-inf) (PK test on ICR mice) | AUC(0-t) (PK test on ICR mice) | Cmax (PK test on ICR mice) | Tmax (PK test on ICR mice) | half-life (PK test on ICR mice) | pIC50 ([1]; cryopreserved CHO-K1/5HT2A cells, calcium fluorescence (FLIPR), antagonist mode vs serotonin EC80, read-out: 5-HT2A IC50) | SMILES | pIC50 [1] | pIC50 [2] | D2/5-HT2A ratio [2] | pIC50 (5-HT2A receptor) |
| --- | --- | --- | --- | --- | --- | --- | --- | --- | --- | --- | --- |
| 9.11 | 190 ng·h/mL | 155 ng·h/mL | 109 ng/mL | 0.17 h | 3.14 h | – | CN1C(=O)CN2c3c1cccc3[C@]1(C)CN(CCCC(=O)c3ccc(F)cc3)CC[C@H]21 [Embodiment 1-A, (6bR,10aS)-8-(4-(4-fluorophenyl)-4-oxobutyl)-3,6b-dimethyl-6b,7,8,9,10,10a-hexahydro-1H-pyrido[3′,4′:4,5]pyrrolo [1,2,3-de]quinoxalin-2(3H)-one] | – | – | – | – |
| – | – | – | – | – | – | – | CN1C(=O)CN2c3c1cccc3C1(C)CN(CCCC(=O)c3ccc(F)cc3)CCC21 (stereo not shown) [Embodiment 1, 8-(4-(4-fluorophenyl)-4-oxobutyl)-3,6b-dimethyl-6b,7,8,9,10,10a-hexahydro-1H-pyrido[3′,4′:4,5]pyrrolo[1,2,3-de]quinoxalin-2(3H)-one] | 7.30 | 6.18 | 13.09 | 8.43 |
| 8.47 | 59.1 ng·h/mL | 39.3 ng·h/mL | 13.5 ng/mL | 0.28 h | 5 h | 6.92 | CN1CCN2c3c(cccc31)[C@@H]1CN(CCCC(=O)c3ccc(F)cc3)CC[C@@H]12 [ITI-007, Lumateperone, reference compound] | – | 6.24 | 4.75 | – |

Source: patent publication US20230339949A1, “HETEROCYCLIC SUBSTITUTED FUSED y-CARBOLINE DERIVATIVE, PREPARATION METHOD THEREFOR, INTERMEDIATE THEREOF AND USE THEREOF” (SHUJING BIOPHARMA CO., LTD, priority 2020, published 2023)
